Test results from PubChem BioAssay (NCI).
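A five-concentration, 48-hour dose response in 96-well plates underlies each endpoint, interpolated linearly between surrounding concentrations. At the TGI there is no net growth.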

Tests used:
Assay in all cases: inhibition of tumour cell growth, NCI panel, 48 h
KM12 colon = tested on: KM12 colon
OVCAR-5 ovarian = tested on: OVCAR-5 ovarian
SNB-78 CNS = tested on: SNB-78 CNS
HL-60(TB) leukemia = tested on: HL-60(TB) leukemia
RXF 393 renal = tested on: RXF 393 renal
SK-OV-3 ovarian = tested on: SK-OV-3 ovarian
A498 renal = tested on: A498 renal
CCRF-CEM leukemia = tested on: CCRF-CEM leukemia
IGROV1 ovarian = tested on: IGROV1 ovarian
HOP-62 NSCLC = tested on: HOP-62 NSCLC
M14 melanoma = tested on: M14 melanoma
K-562 leukemia = tested on: K-562 leukemia
SNB-19 CNS = tested on: SNB-19 CNS
UACC-62 melanoma = tested on: UACC-62 melanoma
EKVX NSCLC = tested on: EKVX NSCLC
NCI-H226 lung = tested on: NCI-H226 lung
A549 NSCLC = tested on: A549 NSCLC
UO-31 renal = tested on: UO-31 renal
M19-MEL melanoma = tested on: M19-MEL melanoma
SR leukemia = tested on: SR leukemia
SK-MEL-28 melanoma = tested on: SK-MEL-28 melanoma
NCI-H522 lung = tested on: NCI-H522 lung
DMS 273 small cell lung = tested on: DMS 273 small cell lung
SF-268 CNS = tested on: SF-268 CNS
U251 CNS = tested on: U251 CNS
NCI-H23 lung = tested on: NCI-H23 lung
HOP-92 NSCLC = tested on: HOP-92 NSCLC
HT29 colon = tested on: HT29 colon
TK-10 renal = tested on: TK-10 renal
NCI-H460 lung = tested on: NCI-H460 lung
MOLT-4 leukemia = tested on: MOLT-4 leukemia
SN12C renal = tested on: SN12C renal
DU-145 prostate = tested on: DU-145 prostate
COLO 205 colon = tested on: COLO 205 colon
OVCAR-3 ovarian = tested on: OVCAR-3 ovarian
SK-MEL-2 melanoma = tested on: SK-MEL-2 melanoma
HCT-15 colon = tested on: HCT-15 colon
CAKI-1 renal = tested on: CAKI-1 renal
786-0 renal = tested on: 786-0 renal
HCT-116 colon = tested on: HCT-116 colon
MCF7 breast = tested on: MCF7 breast
MALME-3M melanoma = tested on: MALME-3M melanoma
SNB-75 CNS = tested on: SNB-75 CNS
NCI/ADR-RES ovarian = tested on: NCI/ADR-RES ovarian
OVCAR-4 ovarian = tested on: OVCAR-4 ovarian
LOX IMVI melanoma = tested on: LOX IMVI melanoma
MDA-MB-435 = tested on: MDA-MB-435
HS 578T breast = tested on: HS 578T breast
SK-MEL-5 melanoma = tested on: SK-MEL-5 melanoma
T-47D breast = tested on: T-47D breast
SF-295 CNS = tested on: SF-295 CNS
OVCAR-8 ovarian = tested on: OVCAR-8 ovarian
MDA-MB-231 breast = tested on: MDA-MB-231 breast
PC-3 prostate = tested on: PC-3 prostate
SW-620 colon = tested on: SW-620 colon
SF-539 CNS = tested on: SF-539 CNS
BT-549 breast = tested on: BT-549 breast
RPMI-8226 leukemia = tested on: RPMI-8226 leukemia
HCC-2998 colon = tested on: HCC-2998 colon
MDA-N = tested on: MDA-N
ACHN renal = tested on: ACHN renal
UACC-257 melanoma = tested on: UACC-257 melanoma

## N#CC1Sc2ccccc2-n2cccc21 (centres undefined)
KM12 colon
  TGI: > 100 µM
OVCAR-5 ovarian
  TGI: > 100 µM
SNB-78 CNS
  TGI: > 100 µM
HL-60(TB) leukemia
  TGI: 61.6 µM
RXF 393 renal
  TGI: 67.3 µM
SK-OV-3 ovarian
  TGI: > 100 µM
A498 renal
  TGI: > 100 µM
CCRF-CEM leukemia
  TGI: > 100 µM
IGROV1 ovarian
  TGI: > 100 µM
HOP-62 NSCLC
  TGI: > 100 µM
M14 melanoma
  TGI: > 100 µM
K-562 leukemia
  TGI: 95.5 µM
SNB-19 CNS
  TGI: > 100 µM
UACC-62 melanoma
  TGI: 99.2 µM
EKVX NSCLC
  TGI: > 100 µM
NCI-H226 lung
  TGI: 87.6 µM
A549 NSCLC
  TGI: > 100 µM
UO-31 renal
  TGI: 93.3 µM
M19-MEL melanoma
  TGI: > 100 µM
SR leukemia
  TGI: > 100 µM
SK-MEL-28 melanoma
  TGI: > 100 µM
NCI-H522 lung
  TGI: > 100 µM
DMS 273 small cell lung
  TGI: > 100 µM
SF-268 CNS
  TGI: 78.2 µM
U251 CNS
  TGI: > 100 µM
NCI-H23 lung
  TGI: > 100 µM
HOP-92 NSCLC
  TGI: > 100 µM
HT29 colon
  TGI: > 100 µM
TK-10 renal
  TGI: > 100 µM
NCI-H460 lung
  TGI: > 100 µM
MOLT-4 leukemia
  TGI: > 100 µM

## CC(O)C1(CNc2cc(Cl)nc(N)n2)CCCC1 (centres undefined)
SN12C renal
  TGI: > 100 µM
DU-145 prostate
  TGI: > 100 µM
COLO 205 colon
  TGI: > 100 µM
KM12 colon
  TGI: > 100 µM
OVCAR-5 ovarian
  TGI: > 100 µM
OVCAR-3 ovarian
  TGI: > 100 µM
HL-60(TB) leukemia
  TGI: > 100 µM
SK-MEL-2 melanoma
  TGI: > 100 µM
RXF 393 renal
  TGI: > 100 µM
SK-OV-3 ovarian
  TGI: > 100 µM
HCT-15 colon
  TGI: > 100 µM
A498 renal
  TGI: > 100 µM
CCRF-CEM leukemia
  TGI: > 100 µM
IGROV1 ovarian
  TGI: > 100 µM
HOP-62 NSCLC
  TGI: > 100 µM
CAKI-1 renal
  TGI: > 100 µM
M14 melanoma
  TGI: > 100 µM
786-0 renal
  TGI: > 100 µM
K-562 leukemia
  TGI: > 100 µM
SNB-19 CNS
  TGI: > 100 µM
HCT-116 colon
  TGI: > 100 µM
UACC-62 melanoma
  TGI: > 100 µM
EKVX NSCLC
  TGI: > 100 µM
NCI-H226 lung
  TGI: > 100 µM
A549 NSCLC
  TGI: > 100 µM
UO-31 renal
  TGI: > 100 µM
MCF7 breast
  TGI: > 100 µM
SR leukemia
  TGI: > 100 µM
MALME-3M melanoma
  TGI: > 100 µM
SNB-75 CNS
  TGI: > 100 µM
NCI/ADR-RES ovarian
  TGI: > 100 µM
OVCAR-4 ovarian
  TGI: > 100 µM
SK-MEL-28 melanoma
  TGI: > 100 µM
LOX IMVI melanoma
  TGI: > 100 µM
MDA-MB-435
  TGI: > 100 µM
HS 578T breast
  TGI: > 100 µM
NCI-H522 lung
  TGI: > 100 µM
SK-MEL-5 melanoma
  TGI: > 100 µM
T-47D breast
  TGI: > 100 µM
SF-295 CNS
  TGI: > 100 µM
OVCAR-8 ovarian
  TGI: > 100 µM
MDA-MB-231 breast
  TGI: > 100 µM
PC-3 prostate
  TGI: > 100 µM
SW-620 colon
  TGI: > 100 µM
SF-539 CNS
  TGI: > 100 µM
SF-268 CNS
  TGI: > 100 µM
BT-549 breast
  TGI: > 100 µM
RPMI-8226 leukemia
  TGI: > 100 µM
U251 CNS
  TGI: > 100 µM
HCC-2998 colon
  TGI: > 100 µM
MDA-N
  TGI: > 100 µM
NCI-H23 lung
  TGI: > 100 µM
HOP-92 NSCLC
  TGI: > 100 µM
HT29 colon
  TGI: > 100 µM
TK-10 renal
  TGI: > 100 µM
NCI-H460 lung
  TGI: > 100 µM
MOLT-4 leukemia
  TGI: > 100 µM
ACHN renal
  TGI: > 100 µM
UACC-257 melanoma
  TGI: > 100 µM

## Cc1cc2c(C(C)C)c(O)c(O)c(C=NCC3CCCN4CCCCC34)c2cc1-c1cc2c(C=NCC3CCCN4CCCCC34)c(O)c(O)c(C(C)C)c2cc1C (centres undefined)
SN12C renal
  TGI: 17.1 µM
DU-145 prostate
  TGI: > 64.3 µM
COLO 205 colon
  TGI: 12.3 µM
KM12 colon
  TGI: 17.7 µM
OVCAR-5 ovarian
  TGI: 38.8 µM
OVCAR-3 ovarian
  TGI: 29 µM
HL-60(TB) leukemia
  TGI: 9.62 µM
SK-MEL-2 melanoma
  TGI: 31.5 µM
RXF 393 renal
  TGI: 22.6 µM
SK-OV-3 ovarian
  TGI: 18.1 µM
HCT-15 colon
  TGI: 41.3 µM
A498 renal
  TGI: > 61.7 µM
CCRF-CEM leukemia
  TGI: 7.75 µM
IGROV1 ovarian
  TGI: 21.6 µM
HOP-62 NSCLC
  TGI: > 38.7 µM
CAKI-1 renal
  TGI: 14.6 µM
M14 melanoma
  TGI: 33.9 µM
786-0 renal
  TGI: > 67.9 µM
K-562 leukemia
  TGI: 38.2 µM
SNB-19 CNS
  TGI: 69.9 µM
HCT-116 colon
  TGI: > 100 µM
UACC-62 melanoma
  TGI: 39.3 µM
EKVX NSCLC
  TGI: 31.8 µM
NCI-H226 lung
  TGI: 43.2 µM
A549 NSCLC
  TGI: > 75.1 µM
UO-31 renal
  TGI: > 45.5 µM
MCF7 breast
  TGI: 37 µM
SR leukemia
  TGI: > 100 µM
MALME-3M melanoma
  TGI: 30.2 µM
SNB-75 CNS
  TGI: 31.3 µM
NCI/ADR-RES ovarian
  TGI: 20.6 µM
OVCAR-4 ovarian
  TGI: 43.3 µM
SK-MEL-28 melanoma
  TGI: 39.5 µM
LOX IMVI melanoma
  TGI: > 49.1 µM
MDA-MB-435
  TGI: 25.8 µM
HS 578T breast
  TGI: 54.5 µM
NCI-H522 lung
  TGI: 11.3 µM
SK-MEL-5 melanoma
  TGI: 15.5 µM
T-47D breast
  TGI: > 31 µM
SF-295 CNS
  TGI: 25.9 µM
OVCAR-8 ovarian
  TGI: 19 µM
MDA-MB-231 breast
  TGI: 14.7 µM
PC-3 prostate
  TGI: 26.3 µM
SW-620 colon
  TGI: > 56.1 µM
SF-539 CNS
  TGI: 85.9 µM
SF-268 CNS
  TGI: 19.1 µM
BT-549 breast
  TGI: 36.4 µM
RPMI-8226 leukemia
  TGI: 58.5 µM
U251 CNS
  TGI: 21.5 µM
HCC-2998 colon
  TGI: 46.3 µM
MDA-N
  TGI: 20.9 µM
NCI-H23 lung
  TGI: 27.1 µM
HOP-92 NSCLC
  TGI: > 100 µM
HT29 colon
  TGI: 13.3 µM
TK-10 renal
  TGI: 32.5 µM
NCI-H460 lung
  TGI: 38.7 µM
MOLT-4 leukemia
  TGI: 20 µM
ACHN renal
  TGI: 17.9 µM
UACC-257 melanoma
  TGI: 51.9 µM
